According to patent publication US8680119B2, “Ethers, secondary amines and derivatives thereof as modulators of the 5-HT2A serotonin receptor useful for the treatment of disorders related thereto” (Arena Pharmaceuticals, Inc., priority 2006, dated 2014):

molecular target: human 5-HT2A receptor (Homo sapiens (Human), UniProt P28223); assay: [125I]DOI radioligand binding assay; settings: 0.5 nM [125I]DOI, COS7 membranes with recombinant human 5-HT2A receptor
Protocol: For the IP accumulation assay (Example 3), HEK293 cells were transfected while for the DOI binding assay (Example 4) COS7 cells were transfected. Several protocols well known in the art can be used to transfect cells. The following protocol is representative of the transfection procedures used herein for COS7 or 293 cells.
On day one, COS-7 cells were plated onto 24 well plates, usually 1×10^5 cells/well or 2×10^5 cells/well, respectively. On day two, the cells were transfected by first mixing 0.25 μg cDNA in 50 μL serum-free DMEM/well and then 2 μL lipofectamine in 50 μL serum-free DMEM/well. The solutions (“transfection media”) were gently mixed and incubated for 15-30 minutes at room temperature. The cells were washed with 0.5 mL PBS and then 400 μL of serum free media was mixed with the transfection media and added to the cells. The cells were then incubated for 3-4 hours at 37° C./5% CO2. Then the transfection media was removed and replaced with 1 mL/well of regular growth media.
Compounds of the invention were tested for their ability to bind to a 5-HT2A receptor clone membrane preparation using a radioligand binding assay. Briefly, COS cells were transiently transfected with a pCMV expression vector containing a human 5-HT2A receptor (for the sequence of the receptor see U.S. Pat. No. 6,541,209, SEQ ID NO:24) as described in Example 2.
COS7 cells transfected with recombinant human 5-HT2A receptors were cultured for 48 hr post transfection, collected, washed with ice-cold phosphate buffered saline, pH7.4 (PBS), and then centrifuged at 48,000×g for […] at 4° C. The cell pellet was then resuspended in wash buffer containing 20 mM HEPES pH 7.4 and 0.1 mM EDTA, homogenized on ice using a Brinkman polytron, and recentrifuged at 48,000×g for 20 min. at 4° C. The resultant pellet was then resuspended in 20 mM HEPES, pH 7.4, homogenized on ice, and centrifuged (48,000×g for 20 min at 4° C.). Crude membrane pellets were stored at −80° C. until used for radioligand binding assays.
Radioligand binding assays for human 5-HT2A receptor was conducted using the 5-HT2 agonist [^125I]DOI as radioligand. To define nonspecific binding, 10 μM DOI was used for all assays. For competitive binding studies, 0.5 nM [^125I]DOI was used and compounds were assayed over a range of 0.01 nM to 10 μM. Assays were conducted in a total volume of 200 μl in 96-well Perkin Elmer GF/C filter plates in assay buffer (50 mM Tris-HCl, pH 7.4, 0.5 mM EDTA, 5 mM MgCl2, and 10 μM pargyline). […] Plates were then dried at room temperature and counted in a Wallac microBeta scintillation counter.

Question: Which IC50 does the source give for `COCCOc1ccc(NC(=O)c2cccc(C(F)(F)F)c2)cc1-c1ccnn1C` [Compound 52, N-[4-(2-Methoxy-ethoxy)-3-(2-methyl-2H-pyrazol-3-yl)-phenyl]-3-trifluoromethyl-benzamide] here?
Answer: 4.4 nM

Question: For `COCCNC(=O)COc1ccc(NC(=O)c2cccc(C(F)(F)F)c2)cc1-c1c(Cl)cnn1C` [Compound 50, N-{3-(4-Chloro-2-methyl-2H-pyrazol-3-yl)-4-[(2-methoxy-ethylcarbamoyl)-methoxy]-phenyl}-3-trifluoromethyl-benzamide], which IC50 is on record?
Answer: 52 nM

Question: For `COc1cccc(C(=O)Nc2ccc(OCCO)c(-c3c(Cl)cnn3C)c2)c1` [Compound 68, N-[3-(4-Chloro-2-methyl-2H-pyrazol-3-yl)-4-(2-hydroxy-ethoxy)-phenyl]-3-methoxy-benzamide], which IC50 is on record?
Answer: 0.51 nM

Question: Which IC50 does the source give for `COCCNCCOc1ccc(NC(=O)c2cccc(C(F)(F)F)c2)cc1-c1c(Cl)cnn1C` [Compound 15, N-{3-(4-Chloro-2-methyl-2H-pyrazol-3-yl)-4-[2-(2-methoxy-ethylamino)-ethoxy]-phenyl}-3-trifluoromethyl-benzamide] here?
Answer: 0.082 nM

tested on: diabetic rats; assay: not given; settings: range stated for all three drugs; cited from earlier work

Question: Which “correction of a 19.8% sciatic motor conduction deficit” value does the source give for `COc1cccc(CCc2ccccc2OCC(CN(C)C)OC(=O)CCC(=O)O)c1` (stereo not shown) [sarpogrelate] here?
Answer: 82.6-99.7%

Question: For `Cc1nc2sccn2c(=O)c1CCN1CCC(=C(c2ccc(F)cc2)c2ccc(F)cc2)CC1` [ritanserin], which “correction of a 19.8% sciatic motor conduction deficit” value is on record?
Answer: 82.6-99.7%

Question: With `O=CN1CCC(C(=O)NCCN2CCC(=C3c4ccccc4C=Cc4ccccc43)CC2)CC1` [AT-1015] as the molecule, how does the “correction of a 19.8% sciatic motor conduction deficit” value read?
Answer: 82.6-99.7%
